Data from publication PMC2225439, “Amyloid as a Depot for the Formulation of Long-Acting Drugs” (PLoS Biology, 2008).

Experiments:
[1] = tested on: plasma luteinizing hormone (LH) levels; conditions: duration of action class as listed in Table 1; castrated male rat assay; ref Tables S1 and S2; cited from earlier work
Excerpt: Table 1 Biochemical and Biophysical Properties of Aggregates By GnRH-Analogs | column: Action || Supplement pbio.0060017.st001.doc, table 1: Table S1: Short acting GnRH analogs with their duration of action | column: Duration of action^b || Supplement pbio.0060017.st002.doc, table 1: Table S2: Long acting GnRH analogs with their duration of action | column: Duration of action^b || (+ 2 further places)

[2] = biological target: T1, α-Syn (Homo sapiens, UniProt P37840); assay: Cross-seeding of α-Syn by L20 fibrils; conditions: matured fibrils 5% v/v with 400 μM α-Syn in PBS pH 7.4, 37 °C, vigorous stirring, 30 d; Thio T
T1 construct: made in house
Procedure: Although the seeding of amyloids requires a high amino acid sequence similarity between the protein/peptide of the seed and its soluble host counterpart, cross-seeding between different protein species have been documented. To test whether amyloids of long-acting GnRH analogs are able to cross-seed with a protein associated with Parkinson disease, α-Syn, a seeding reaction was done with a small amount of matured L20 fibrils (5% v/v) in the presence of α-Syn (95% v/v; 400 μM concentration of monomeric solution [pH 7.4] in PBS). The fibril growth of the mixture as well as α-Syn in PBS as control were followed over a period of 30 d by Thio T binding.
A total of 5 μl of matured L20 fibril solution at a concentration of 1 mg/ml in 5% D-mannitol, 0.01% sodium azide was mixed with 95 μl of freshly prepared GnRH solution in the same solution condition followed by incubation at room temperature without stirring. […] Once a week, a 10-μl aliquot was diluted into 500 μl water containing 5% D-mannitol, 0.01% sodium azide, and 10 μl of 1 mM Thio T to measure the Thio T fluorescence as described above. […] The protein concentration of the supernatant was measured by UV absorbance with ɛ280 of 6,500 M^−1cm^−1. […] The formation of amyloid was monitored regularly for the mixture (α-Syn+L20) and α-Syn by Thio T binding.

[3] = Congo red (CR) binding; type: physicochemical; design: key to Congo Red: b, binding; n, not binding; conditions: analogs incubated for 30 d, 1 mg/ml in 5% D-mannitol, 0.01% sodium azide, room temperature; UV 300–700 nm and by eye; three independent experiments
Procedure: To confirm amyloid formation by GnRH analogs, CR binding was measured. CR, like Thio T, is a dye routinely used to detect β-sheet–rich assemblies. CR binding can be measured by the “red shift” change of its absorption maximum from 490 to 540 nm, by an increase of the dye's molar absorptivity, and in favorable cases by eye. All three types of measurements were performed with GnRH analogs incubated for 30 d. […] However, five short-acting GnRH analogs, i.e., S3, S4, S6, S10, and S11, bind CR, showing that some short-acting GnRH-analogs are able to form amyloids after prolonged incubation (see also below). In contrast to short-acting analogs, all long-acting analogs bind CR.
GnRH analogs were dissolved in a glass tube in 1 ml of 5% D-mannitol and 0.01% sodium azide at a concentration of 1 mg/ml. The GnRH analogs were then incubated at room temperature without stirring. The fibril formation was monitored by EM, CR, and time-resolved by Thio T binding studies. Three independent experiments were performed for each sample.
A 5-μl aliquot of peptide sample was mixed with 80 μl of PBS buffer containing 10% ethanol. Then 15 μl of a 100 μM CR solution (filtered through 0.2-μm filter) in PBS containing 10% ethanol was added. After mixing, UV was measured from 300–700 nm. For the measurement of the CR-only spectrum, 15 μl of CR solution with 85 μl of PBS containing 10% ethanol was prepared. As a control, a 5-μl aliquot of GnRH analog mixed with 95 μl of PBS containing 10% ethanol was measured. Three independent experiments were performed for each sample. In addition to the UV measurements, pictures of the cuvette containing the peptide sample and CR were taken to visually show the CR binding to the amyloids.

Congo Red [3]: b
Substance: Ac-DNal-DCpa-Agl(Nic)-Ser-Aph(Ac)-DAph(Ac)-Leu-ILys-Pro-DAla-NH2 [L20]
Action [1]: intermediate | cross-seeding of α-Syn [2]: did not significantly influence the aggregation of α-Syn
